From patent US6468476B1, “Methods for using-co-regulated genesets to enhance detection and classification of gene expression patterns” (Rosetta Inpharmatics, Inc., priority 1998, dated 2002)

Test system: genes regulated by the Gcn4 transcription factor
Assay: Transcript response (DNA microarray) to a titration series of FK506, genes of the Gcn4 geneset
Type: cell-based, Saccharomyces cerevisiae
Experimental: Yeast (Saccharomyces cerevisiae, Strain YPH499, see, Sikorski and Hieter, 1989, A system of shuttle vectors and yeast host strains designated for efficient manipulation of DNA in Saccharomyces cerevisiae, Genetics 122:19-27) cells were grown in YAPD at 30° C. to an OD600 of 1.0 (±0.2), and total RNA prepared by breaking cells in phenol/chloroform and 0.1% SDS by standard procedures (Ausubel et al., 1995, Current Protocols in Molecular Biology, Greene Publishing and Wiley-Interscience, New York, Ch. 13). Poly(A)^+ RNA was selected by affinity chromatography on oligo-dT cellulose (New England Biolabs) essentially as described in Sambrook et al. (Molecular Cloning—A Laboratory Manual (2nd Ed.), Vol. 1, Cold Spring Harbor Laboratory, Cold Spring Harbor, N.Y., 1989). First strand cDNA synthesis was carried out with 2 μg poly(A)^+ RNA and SuperScript™ II reverse transcriptase (Gibco-BRL) according to the manufacturer's instructions with the following modifications. Deoxyribonucleotides were present at the following concentrations: dA, dG, and dC at 500 μM each, dT at 100 μM and either Cy3-dUTP or Cy5-dUTP (Amersham) at 100 μM. cDNA synthesis reactions were carried out at 42-44° C. for 90 minutes, after which RNA was degraded by the addition of 2 units of RNAse H, and the cDNA products were purified by two successive rounds of centrifugation dialysis using MICROCON-30 microconcentrators (Amicon) according to the manufacturer's recommendations.
Double-stranded DNA polynucleotides corresponding in sequence to each ORF in the S. cerevisiae genome encoding a polypeptide greater than 99 amino acids (based on the published yeast genomic sequence, e.g., Goffeau et al., 1996, Science 274:546-567) are made by polymerase chain reaction (PCR) amplification of yeast genomic DNA. Two PCR primers are chosen internal to each of the ORFs according to two criteria: (i) the amplified fragments are 300-800 bp and (ii) none of the fragments have a section of more than 10 consecutive nucleotides of sequence in common. Computer programs are used to aid in the design of the PCR primers. Amplification is carried out in 96 well microtitre plates. The resulting DNA fragments are printed onto glass microscope slides using the method of Shalon et al., 1996, Genome Research 6:639-645.
Fluorescently-labeled cDNAs (2-6 μg) are resuspended in 4×SSC plus 1 μg/μl tRNA as carrier and filtered using […] filters (Millipore, Bedford, Mass.). SDS is added to 0.3%, prior to heating to 100° C. for 2 minutes. Probes are cooled and immediately hybridized to the microarrays produced as described in Example 6.2, for 4 hours at 65° C. Non-hybridized probe is removed by washing in 1×SSC plus 0.1% SDS at ambient temperature for 1-2 minutes. Microarrays are scanned with a fluorescence laser-scanning device as previously described (Schena et al., 1995, Science 270:467-470; Schena et al., 1995, Proc. Natl. Acad. Sci. USA 93:[…]) and the results (including the positions of perturbations) are recorded.
Geneset number 3 in the clustering analysis result of FIG. 6 involves genes regulated by the Gcn4 transcription factor. This was verified via the literature and via multiple sequence alignment analysis of the regulatory regions 5′ to the individual genes (Stormo and Hartzell, 1989, Identifying protein binding sites from unaligned DNA fragments, Proc Natl Acad Sci 86:1183-1187; Hertz and Stormo, 1995, Identification of consensus patterns in unaligned DNA and protein sequences: a large-deviation statistical basis for penalizing gaps, Proc of 3rd Intl Conf on Bioinformatics and Genome Research, Lim and Cantor, eds., World Scientific Publishing Co., Ltd. Singapore, pp. 201-216). […] These 20 were used to define a geneset. Response profiles to a titration series of the drug FK506, which is known to hit this pathway at higher concentrations, were projected onto this geneset. […]

C=CC[C@@H]1/C=C(\C)C[C@H](C)C[C@H](OC)[C@H]2O[C@@](O)(C(=O)C(=O)N3CCCC[C@H]3C(=O)O[C@H](/C(C)=C/[C@@H]3CC[C@@H](O)[C@H](OC)C3)[C@H](C)[C@@H](O)CC1=O)[C@H](C)C[C@@H]2OC [FK506]
Geneset Average response (projected response of the 20-gene Gcn4 geneset) (FK506 0.1 μg/ml): 0.1728 standard deviations of Log10(Expression Ratio) | Response of gene ARG1 (FK506 0.1 μg/ml): 0.2083 standard deviations of Log10(Expression Ratio) | Response of gene ARG4 (FK506 0.1 μg/ml): 0.3585 standard deviations of Log10(Expression Ratio) | Response of gene ARG5,6 (FK506 0.1 μg/ml): 0.1162 standard deviations of Log10(Expression Ratio) | Response of gene ECM13 (FK506 0.1 μg/ml): 0.1269 standard deviations of Log10(Expression Ratio) | Response of gene HIS3 (FK506 0.1 μg/ml): −0.3719 standard deviations of Log10(Expression Ratio) | Response of gene HIS5 (FK506 0.1 μg/ml): 0.0292 standard deviations of Log10(Expression Ratio) | Response of gene MET16 (FK506 0.1 μg/ml): 0.0225 standard deviations of Log10(Expression Ratio) | Response of gene NCE3 (FK506 0.1 μg/ml): 0.0371 standard deviations of Log10(Expression Ratio) | Response of gene PCL5 (FK506 0.1 μg/ml): 0.1418 standard deviations of Log10(Expression Ratio) | Response of gene SNO1 (FK506 0.1 μg/ml): −0.2899 standard deviations of Log10(Expression Ratio) | Response of gene SNZ1 (FK506 0.1 μg/ml): −0.7223 standard deviations of Log10(Expression Ratio) | Response of gene SSU1 (FK506 0.1 μg/ml): 0.6257 standard deviations of Log10(Expression Ratio) | Response of gene YBR047W (FK506 0.1 μg/ml): 0.0781 standard deviations of Log10(Expression Ratio) | Response of gene YER024W (FK506 0.1 μg/ml): 0.1985 standard deviations of Log10(Expression Ratio) | Response of gene YGL117W (FK506 0.1 μg/ml): 0.6309 standard deviations of Log10(Expression Ratio) | Response of gene YGL184C (FK506 0.1 μg/ml): 0.0654 standard deviations of Log10(Expression Ratio) | Response of gene YHR029C (FK506 0.1 μg/ml): −0.031 standard deviations of Log10(Expression Ratio) | Response of gene YMR195W (FK506 0.1 μg/ml): 0.7615 standard deviations of Log10(Expression Ratio) | Geneset Average response (projected response of the 20-gene Gcn4 geneset) (FK506 0.31 μg/ml): 0.6753 standard deviations of Log10(Expression Ratio) | Response of gene ARG1 (FK506 0.31 μg/ml): 0.3436 standard deviations of Log10(Expression Ratio) | Response of gene ARG4 (FK506 0.31 μg/ml): 0.3508 standard deviations of Log10(Expression Ratio) | Response of gene ARG5,6 (FK506 0.31 μg/ml): 0.2722 standard deviations of Log10(Expression Ratio) | Response of gene ARO3 (FK506 0.31 μg/ml): −0.1371 standard deviations of Log10(Expression Ratio) | Response of gene ECM13 (FK506 0.31 μg/ml): 0.2197 standard deviations of Log10(Expression Ratio) | Response of gene HIS3 (FK506 0.31 μg/ml): 0.1282 standard deviations of Log10(Expression Ratio) | Response of gene HIS5 (FK506 0.31 μg/ml): 0.2175 standard deviations of Log10(Expression Ratio) | Response of gene MET16 (FK506 0.31 μg/ml): −0.6269 standard deviations of Log10(Expression Ratio) | Response of gene NCE3 (FK506 0.31 μg/ml): 0.1668 standard deviations of Log10(Expression Ratio) | Response of gene PCL5 (FK506 0.31 μg/ml): 0.2767 standard deviations of Log10(Expression Ratio) | Response of gene SNO1 (FK506 0.31 μg/ml): 0.0244 standard deviations of Log10(Expression Ratio) | Response of gene SNZ1 (FK506 0.31 μg/ml): 0.0244 standard deviations of Log10(Expression Ratio) | Response of gene SSU1 (FK506 0.31 μg/ml): 0.6655 standard deviations of Log10(Expression Ratio) | Response of gene YBR047W (FK506 0.31 μg/ml): 0.1553 standard deviations of Log10(Expression Ratio) | Response of gene YER024W (FK506 0.31 μg/ml): −0.0419 standard deviations of Log10(Expression Ratio) | Response of gene YGL117W (FK506 0.31 μg/ml): 0.6768 standard deviations of Log10(Expression Ratio) | Response of gene YGL184C (FK506 0.31 μg/ml): −0.0207 standard deviations of Log10(Expression Ratio) | Response of gene YHR029C (FK506 0.31 μg/ml): 0.2438 standard deviations of Log10(Expression Ratio) | Response of gene YMR195W (FK506 0.31 μg/ml): 0.3323 standard deviations of Log10(Expression Ratio) | 'Geneset' response, significance (FK506 1.6 μg/ml): > 3 sigrna | Geneset Average response (projected response of the 20-gene Gcn4 geneset) (FK506 1.6 μg/ml): 3.3045 standard deviations of Log10(Expression Ratio) | Response of gene ARG1 (FK506 1.6 μg/ml): 3.1765 standard deviations of Log10(Expression Ratio) | Response of gene ARG4 (FK506 1.6 μg/ml): 1.6674 standard deviations of Log10(Expression Ratio) | Response of gene ARG5,6 (FK506 1.6 μg/ml): 1.1844 standard deviations of Log10(Expression Ratio) | Response of gene ARO3 (FK506 1.6 μg/ml): 0.2684 standard deviations of Log10(Expression Ratio) | Response of gene CPA2 (FK506 1.6 μg/ml): 1.2429 standard deviations of Log10(Expression Ratio) | Response of gene ECM13 (FK506 1.6 μg/ml): 0.5226 standard deviations of Log10(Expression Ratio) | Response of gene HIS3 (FK506 1.6 μg/ml): 0.71 standard deviations of Log10(Expression Ratio) | Response of gene HIS5 (FK506 1.6 μg/ml): 0.9802 standard deviations of Log10(Expression Ratio) | Response of gene MET16 (FK506 1.6 μg/ml): −0.1885 standard deviations of Log10(Expression Ratio) | Response of gene NCE3 (FK506 1.6 μg/ml): 1.2896 standard deviations of Log10(Expression Ratio) | Response of gene PCL5 (FK506 1.6 μg/ml): 0.4127 standard deviations of Log10(Expression Ratio) | Response of gene SNO1 (FK506 1.6 μg/ml): −0.4772 standard deviations of Log10(Expression Ratio) | Response of gene SNZ1 (FK506 1.6 μg/ml): −0.4772 standard deviations of Log10(Expression Ratio) | Response of gene SSU1 (FK506 1.6 μg/ml): 0.2883 standard deviations of Log10(Expression Ratio) | Response of gene YBR047W (FK506 1.6 μg/ml): 0.2806 standard deviations of Log10(Expression Ratio) | Response of gene YER024W (FK506 1.6 μg/ml): 0.4868 standard deviations of Log10(Expression Ratio) | Response of gene YGL117W (FK506 1.6 μg/ml): 1.6276 standard deviations of Log10(Expression Ratio) | Response of gene YGL184C (FK506 1.6 μg/ml): −0.0731 standard deviations of Log10(Expression Ratio) | Response of gene YHR029C (FK506 1.6 μg/ml): 0.4421 standard deviations of Log10(Expression Ratio) | Response of gene YMR195W (FK506 1.6 μg/ml): 1.6021 standard deviations of Log10(Expression Ratio)
